From article PMC5575539 (Journal of Clinical Pharmacology, 2017)
Read-outs that look alike come from different tables or passages of the source.

Experiments:
[1] = assay type: in vivo, human; conditions: for AUC: human, plasma, oral, 12 mg, Median AUC based on the starting dose, steady state, model‐derived
[2] = assay type: in vivo, human; conditions: ROC curve; TEAEs during cycle 1; subjects with HCC
[3] = 4‐week cycles, continuous schedule; subjects with Child‐Pugh class A; cited from earlier work
[4] = system: subjects with HCC Child‐Pugh class A; conditions: 12 mg QD; independent radiologic review per modified RECIST; cited from earlier work
[5] = Population pharmacokinetic analysis of lenvatinib; assay type: in vivo, human; conditions: for Additional (ng/mL) (TAD ≤ 2 hours) / Proportional (%CV) (Clinical pharmacology studies) / Proportional (%CV) (Patient studies) / Proportional (%CV) (TAD ≤ 2 hours): residual error
[6] = final model, bootstrap median (2.5‐97.5 percentile)
[7] = final model, population mean (%RSE)
[8] = base model, population mean (%RSE)

COc1cc2nccc(Oc3ccc(NC(=O)NC4CC4)c(Cl)c3)c2cc1C(N)=O [lenvatinib]
Subjects who experienced TEAEs leading to dose reduction or discontinuation during cycle 1 ([1]; 21 of 45 subjects in the exposure–response population, 12 mg QD, HCC): 46.7%
Relationship between lenvatinib exposure and response (time to progression) ([1]; Kaplan‐Meier, tertiles of AUC based on starting dose of 12 mg, independent reviewer assessments): No relationship
AUC ([1]; subjects with early dose withdrawal or reduction): 2950 ng·h/mL
AUC ([1]; subjects without early dose modification): 2050 ng·h/mL
Best cutoff value of lenvatinib AUC to predict high‐risk group for early drug withdrawal or dose reduction [2]: 2430 ng·h/mL
Maximum tolerated dose [3]: 12 mg QD
Median time to progression [4]: 7.4 months
Objective response rate [4]: 37%
Ka ([5]; base model, population mean (%RSE), absorption rate): 1.02 (6.06) L/h
D1 ([5]; base model, population mean (%RSE), duration of 0‐order absorption): 1.05 (5.45) hours
F1 (capsule vs tablet formulation) ([5]; base model, population mean (%RSE), relative bioavailability): 0.832 (0.982)
Effect of the HCC population (HCC vs other cancer type) on CL/F ([5]; covariate analysis, model including body weight and alkaline phosphatase effects): not a statistically significant effect
CL/F interindividual variability explained by body weight ([5]; final PK model): 10.5%
CL/F interindividual variability explained by other covariates ([5]; final PK model): 14.3%
Decrease of CL/F with CYP3A4 inhibitors ([5]; final PK model): 7.8%
Decrease of CL/F with alkaline phosphatase above the upper limit of normal ([5]; final PK model): 14.8%
Higher CL/F in healthy subjects than in patients with cancer ([5]; final PK model): 19%
Increase of CL/F with concomitant administration of CYP3A4 inducers ([5]; final PK model): 30%
Decrease of CL/F with alkaline phosphatase above the upper limit of normal ([5]; final PK model, listed as Lenvatinib): 15%
ALP (> ULN vs ≤ ULN) on CL/F [ΘALP] [5, 6]: 0.855 (0.807‐0.910)
Body weight on V1/F, V2/F, and V3/F [ΘWGT2] [5, 6]: 1.08 (0.876‐1.28)
D1 [5, 6]: 1.06 (0.987‐1.14) hours
F1 (capsule vs tablet formulation) [5, 6]: 0.867 (0.815‐0.908)
Ka [5, 6]: 1.04 (0.933‐1.13) L/h
Population (healthy vs subjects) on CL/F [ΘTM] [5, 6]: 1.19 (1.11‐1.27)
ALP (> ULN vs ≤ ULN) on CL/F [ΘALP] [5, 7]: 0.852 (1.24)
Population (healthy vs subjects) on CL/F [ΘTM] [5, 7]: 1.19 (3.26)
Ka ([5]; final model, population mean (%RSE), absorption rate): 1.04 (6.80) L/h
D1 ([5]; final model, population mean (%RSE), duration of 0‐order absorption): 1.06 (5.77) hours
Body weight on V1/F, V2/F, and V3/F [ΘWGT2] ([5]; final model, population mean (%RSE), power exponent on WGT/75): 1.08 (5.42)
F1 (capsule vs tablet formulation) ([5]; final model, population mean (%RSE), relative bioavailability): 0.867 (1.00)
Differences in CL/F between HCC Child‐Pugh class A and B groups ([5]; population PK analysis): No differences in CL/F
Additional (ng/mL) (TAD ≤ 2 hours) [5, 8]: 7.29 (16.2) ng/mL
Proportional (%CV) (Clinical pharmacology studies) [5, 8]: 18.4 (0.888) %CV
Proportional (%CV) (Patient studies) [5, 8]: 30.7 (2.03) %CV
Proportional (%CV) (TAD ≤ 2 hours) [5, 8]: 44.9 (3.75) %CV
Additional (ng/mL) (TAD ≤ 2 hours) [5, 6]: 7.50 (4.62‐9.85) ng/mL
Proportional (%CV) (Clinical pharmacology studies) [5, 6]: 17.1 (15.5‐18.8) %CV
Proportional (%CV) (Patient studies) [5, 6]: 30.1 (27.7‐32.2) %CV
Proportional (%CV) (TAD ≤ 2 hours) [5, 6]: 44.8 (40.7‐48.8) %CV
Additional (ng/mL) (TAD ≤ 2 hours) [5, 7]: 7.35 (16.3) ng/mL
Proportional (%CV) (Clinical pharmacology studies) [5, 7]: 17.3 (0.883) %CV
Proportional (%CV) (Patient studies) [5, 7]: 30.2 (2.00) %CV
Proportional (%CV) (TAD ≤ 2 hours) [5, 7]: 44.8 (3.87) %CV
